Assays:
[1] = tested on: neuraminidase (NA) of influenza B viruses; assay type: biochemical, influenza B virus
[2] = tested on: neuraminidase (NA) of influenza A (H3N2) viruses; assay type: biochemical, influenza A (H3N2) virus

Row | SMILES | Fold change in IC50 of test viruses, Approach #3 [1] | fold change in IC50 of outliers [1] | Fold change in IC50 of test viruses, Approach #1 [2] | Fold change in IC50 of test viruses, Approach #2 [2] | Fold change in IC50 of test viruses, Approach #3 [2] | fold change in IC50 of outliers [2]
1 | CCOC(=O)C1=C[C@@H](OC(CC)CC)[C@H](NC(C)=O)[C@@H](N)C1 [Oseltamivir, Oseltamivir (carboxylate)] | 6 (1) fold | 53·02 (6) fold |  |  |  | 
2 | CC(=O)N[C@H]1[C@H]([C@H](O)[C@H](O)CO)OC(C(=O)O)=C[C@@H]1N=C(N)N [Zanamivir, zanamivir] | 5 (1) fold | 5·11 (5) fold | 132 (1) fold | 132 (1) fold | 91 (1) fold | 23·75 (91) fold
